Assay results from patent US11357779B2 (G1 Therapeutics, Inc., priority 2018, dated 2022).
Where two headings read alike, the source gives them in different places.

Test: Plasma concentration versus time of Compound I and metabolite Compound III in patients dosed QD or BID with Form B of Compound II plus fulvestrant
Format: in vivo, human
Conditions: human, plasma, oral
Excerpt: Patients were enrolled into 1 of 2 parallel, independently operating, dose-escalation dosing cohorts with Form B of Compound II administered continuously either once daily (QD) or twice daily (BID) with food with fixed-dose fulvestrant (intramuscularly every 14 days for the first three injections and then every 28 days). Pre- or perimenopausal patients also received goserelin for the duration of study treatment. A […] agonist was started at least 28 days before the first dose of Form B, and those patients who were taking another LHRH agonist were switched to goserelin on Day 1. Patients were split into […] cohorts providing once a day (QD) dosing of 200 mg, 300 mg, 400 mg, 500 mg, or 650 mg of Form B, or twice a day (BID) dosing of 100 mg, 150 mg, or 200 mg of Form B. The second dose in BID cohorts was not administered in the evening until at least 12 hours after the initial morning dose of Form B. The dosing cohorts for Form B of Compound II are provided in Table 1.
Blood samples were collected at the following time points relative to the morning dose of Form B at Day 1 and at Day 29: pre-dose (0 hour) and 1, 2, 3, 4, 6, 8, 10, 12 (prior to the evening dose in the BID cohorts), and 24 (prior to the next day's morning dose) hours after dosing. A 5-minute time window was allowed for samples collected between the predose and 3 hours after Form B dosing. A 15-minute window was allowed for samples collected between 4 to 12 hours after Form B dosing. A 1-hour window was allowed for the sample collected 24 hours after Form B dosing. Blood samples for Compound I PK trough levels were collected pre-dose at Day 8, Day 15, and Day 22 prior to the morning administration of Compound I. Plasma concentrations of Compound I and its metabolite, Compound III, were measured using validated methods.
Analysis of plasma concentration versus time data for calculation of standard pharmacokinetic (PK) parameters following oral administration was conducted using Phoenix WinNonlin version 6.3 using actual blood sampling times.

CC(C)N1CCN(c2ccc(Nc3ncc4cc5n(c4n3)C3(CCCCC3)CNC5=O)nc2)CC1 [Compound I, 2′-((5-(4-isopropylpiperazin-1-yl)pyridin-2-yl)amino)-7′,8′-dihydro-6′H-spiro[cyclohexane-1,9′-pyrazino[1′,2′:1,5]pyrrolo[2,3-d]pyrimidin]-6′-one]
concentration at 3 h (200 mg, 200 mg QD of Form B, Day 29, 3.0 h, Median, read-out: Compound I Concentration): 11.8 ng/mL | concentration at 4 h (200 mg, 200 mg QD of Form B, Day 29, 4.0 h, Mean, read-out: Compound I Concentration): 17.5 ng/mL | concentration at 4 h (200 mg, 200 mg QD of Form B, Day 29, 4.0 h, Median, read-out: Compound I Concentration): 18.8 ng/mL | concentration at 6 h (200 mg, 200 mg QD of Form B, Day 29, 6.0 h, Mean, read-out: Compound I Concentration): 18.5 ng/mL | concentration at 6 h (200 mg, 200 mg QD of Form B, Day 29, 6.0 h, Median, read-out: Compound I Concentration): 17.9 ng/mL | concentration at 8 h (200 mg, 200 mg QD of Form B, Day 29, 8.0 h, Mean, read-out: Compound I Concentration): 14.6 ng/mL | concentration at 8 h (200 mg, 200 mg QD of Form B, Day 29, 8.0 h, Median, read-out: Compound I Concentration): 12.1 ng/mL | concentration at 10 h (200 mg, 200 mg QD of Form B, Day 29, 10.0 h, Mean, read-out: Compound I Concentration): 11.1 ng/mL | concentration at 10 h (200 mg, 200 mg QD of Form B, Day 29, 10.0 h, Median, read-out: Compound I Concentration): 8.7 ng/mL | concentration at 12 h (200 mg, 200 mg QD of Form B, Day 29, 12.0 h, Mean, read-out: Compound I Concentration): 8.46 ng/mL | concentration at 12 h (200 mg, 200 mg QD of Form B, Day 29, 12.0 h, Median, read-out: Compound I Concentration): 8.32 ng/mL | concentration at 24 h (200 mg, 200 mg QD of Form B, Day 29, […], Mean, read-out: Compound I Concentration): 6.01 ng/mL | concentration at 24 h (200 mg, 200 mg QD of Form B, Day 29, […], Median, read-out: Compound I Concentration): 4.9 ng/mL | concentration at 0 h (200 mg, Cohort 8, 200 mg BID of Form B, Day 29, 0.0 h, read-out: Compound I Concentration, Mean): 9.74 ng/mL | concentration at 0 h (200 mg, Cohort 8, 200 mg BID of Form B, Day 29, 0.0 h, read-out: Compound I Concentration, Min): 5.47 ng/mL | concentration at 1 h (200 mg, Cohort 8, 200 mg BID of Form B, Day 29, 1.0 h, read-out: Compound I Concentration, Mean): 9.23 ng/mL | concentration at 1 h (200 mg, Cohort 8, 200 mg BID of Form B, Day 29, 1.0 h, read-out: Compound I Concentration, Min): 5.1 ng/mL | concentration at 2 h (200 mg, Cohort 8, 200 mg BID of Form B, Day 29, 2.0 h, read-out: Compound I Concentration, Mean): 12 ng/mL | concentration at 2 h (200 mg, Cohort 8, 200 mg BID of Form B, Day 29, 2.0 h, read-out: Compound I Concentration, Min): 5.56 ng/mL | concentration at 3 h (200 mg, Cohort 8, 200 mg BID of Form B, Day 29, 3.0 h, read-out: Compound I Concentration, Mean): 15.2 ng/mL | concentration at 3 h (200 mg, Cohort 8, 200 mg BID of Form B, Day 29, 3.0 h, read-out: Compound I Concentration, Min): 7.49 ng/mL | concentration at 4 h (200 mg, Cohort 8, 200 mg BID of Form B, Day 29, 4.0 h, read-out: Compound I Concentration, Mean): 21.1 ng/mL | concentration at 4 h (200 mg, Cohort 8, 200 mg BID of Form B, Day 29, 4.0 h, read-out: Compound I Concentration, Min): 7.69 ng/mL | concentration at 6 h (200 mg, Cohort 8, 200 mg BID of Form B, Day 29, 6.0 h, read-out: Compound I Concentration, Max): 28.1 ng/mL | concentration at 6 h (200 mg, Cohort 8, 200 mg BID of Form B, Day 29, 6.0 h, read-out: Compound I Concentration, Mean): 19 ng/mL | concentration at 6 h (200 mg, Cohort 8, 200 mg BID of Form B, Day 29, 6.0 h, read-out: Compound I Concentration, Min): 7.6 ng/mL | concentration at 8 h (200 mg, Cohort 8, 200 mg BID of Form B, Day 29, 8.0 h, read-out: Compound I Concentration, Max): 21.7 ng/mL | concentration at 8 h (200 mg, Cohort 8, 200 mg BID of Form B, Day 29, 8.0 h, read-out: Compound I Concentration, Mean): 14.6 ng/mL | concentration at 8 h (200 mg, Cohort 8, 200 mg BID of Form B, Day 29, 8.0 h, read-out: Compound I Concentration, Min): 7.36 ng/mL | concentration at 10 h (200 mg, Cohort 8, 200 mg BID of Form B, Day 29, 10.0 h, read-out: Compound I Concentration, Max): 38.6 ng/mL | concentration at 10 h (200 mg, Cohort 8, 200 mg BID of Form B, Day 29, 10.0 h, read-out: Compound I Concentration, Mean): 18.6 ng/mL | concentration at 10 h (200 mg, Cohort 8, 200 mg BID of Form B, Day 29, 10.0 h, read-out: Compound I Concentration, Min): 5.61 ng/mL | concentration at 12 h (200 mg, Cohort 8, 200 mg BID of Form B, Day 29, 12.0 h, read-out: Compound I Concentration, Max): 40.8 ng/mL | concentration at 12 h (200 mg, Cohort 8, 200 mg BID of Form B, Day 29, 12.0 h, read-out: Compound I Concentration, Mean): 19.8 ng/mL | concentration at 12 h (200 mg, Cohort 8, 200 mg BID of Form B, Day 29, 12.0 h, read-out: Compound I Concentration, Min): 6.32 ng/mL | concentration at 0 h (300 mg, 300 mg QD of Form B, Day 1, 0.0 h, Mean, read-out: Compound I Concentration): 0 ng/mL | concentration at 0 h (300 mg, 300 mg QD of Form B, Day 1, 0.0 h, Median, read-out: Compound I Concentration): 0 ng/mL | concentration at 1 h (300 mg, 300 mg QD of Form B, Day 1, 1.0 h, Mean, read-out: Compound I Concentration): 22.9 ng/mL | concentration at 1 h (300 mg, 300 mg QD of Form B, Day 1, 1.0 h, Median, read-out: Compound I Concentration): 3.73 ng/mL | concentration at 2 h (300 mg, 300 mg QD of Form B, Day 1, 2.0 h, Mean, read-out: Compound I Concentration): 16.9 ng/mL | concentration at 2 h (300 mg, 300 mg QD of Form B, Day 1, 2.0 h, Median, read-out: Compound I Concentration): 5.96 ng/mL | concentration at 3 h (300 mg, 300 mg QD of Form B, Day 1, 3.0 h, Mean, read-out: Compound I Concentration): 27.1 ng/mL | concentration at 3 h (300 mg, 300 mg QD of Form B, Day 1, 3.0 h, Median, read-out: Compound I Concentration): 13.4 ng/mL | concentration at 4 h (300 mg, 300 mg QD of Form B, Day 1, 4.0 h, Mean, read-out: Compound I Concentration): 32 ng/mL | concentration at 4 h (300 mg, 300 mg QD of Form B, Day 1, 4.0 h, Median, read-out: Compound I Concentration): 19.8 ng/mL | concentration at 6 h (300 mg, 300 mg QD of Form B, Day 1, 6.0 h, Mean, read-out: Compound I Concentration): 31.6 ng/mL | concentration at 6 h (300 mg, 300 mg QD of Form B, Day 1, 6.0 h, Median, read-out: Compound I Concentration): 43.1 ng/mL | concentration at 8 h (300 mg, 300 mg QD of Form B, Day 1, 8.0 h, Mean, read-out: Compound I Concentration): 22.7 ng/mL | concentration at 8 h (300 mg, 300 mg QD of Form B, Day 1, 8.0 h, Median, read-out: Compound I Concentration): 28.1 ng/mL | concentration at 10 h (300 mg, 300 mg QD of Form B, Day 1, 10.0 h, Mean, read-out: Compound I Concentration): 19.9 ng/mL | concentration at 10 h (300 mg, 300 mg QD of Form B, Day 1, 10.0 h, Median, read-out: Compound I Concentration): 18.1 ng/mL | concentration at 12 h (300 mg, 300 mg QD of Form B, Day 1, 12.0 h, Mean, read-out: Compound I Concentration): 15.5 ng/mL | concentration at 12 h (300 mg, 300 mg QD of Form B, Day 1, 12.0 h, Median, read-out: Compound I Concentration): 13.5 ng/mL | concentration at 24 h (300 mg, 300 mg QD of Form B, Day 1, […], Mean, read-out: Compound I Concentration): 8.09 ng/mL | concentration at 24 h (300 mg, 300 mg QD of Form B, Day 1, […], Median, read-out: Compound I Concentration): 8.48 ng/mL | concentration at 0 h (300 mg, 300 mg QD of Form B, Day 29, 0.0 h, Mean, read-out: Compound I Concentration): 13.9 ng/mL | concentration at 0 h (300 mg, 300 mg QD of Form B, Day 29, 0.0 h, Median, read-out: Compound I Concentration): 8.24 ng/mL | concentration at 1 h (300 mg, 300 mg QD of Form B, Day 29, 1.0 h, Mean, read-out: Compound I Concentration): 16.2 ng/mL
